Data reported in paper PMC467089, “Click estradiol dimers with novel aromatic bridging units: synthesis and anticancer evaluation” (Journal of Enzyme Inhibition and Medicinal Chemistry, 2024).

Experiments:
[1] = tested on: CCRF-CEM (childhood T-cell acute lymphoblastic leukaemia); experiment: MTS cytotoxicity assay, CCRF-CEM; type: cell-based; conditions: Homo sapiens, 72 h, read-out: IC50 cytotoxic activity CCRF-CEM
Description: (§1) The p53 deficient variant, HCT116p53−/−, was purchased from Horizon Discovery (Cambridge, UK). The daunorubicin-resistant CCRF-CEM cell line CEM-DNR bulk and paclitaxel-resistant K562-TAX sublines were developed in-house by exposing parental cell lines to escalating concentrations of daunorubicin and paclitaxel, respectively. Cells were maintained in the recommended culture medium (Sigma-Aldrich, St. Louis, MO) supplemented with 10% foetal calf serum, 100 U/mL penicillin, and 100 μg/mL streptomycin. The HUVEC line was obtained from PromoCell (Heidelberg, Germany). The cells were cultured in endothelial cell growth medium with SupplementMix for endothelial cells (PromoCell, Heidelberg, Germany). The incubation conditions were a humidified atmosphere of 95% air and 5% CO2 at 37 °C[10]. Cells were seeded in 384-well plates and after overnight incubation treated with compounds. All tested compounds were dissolved in 100% DMSO, and fourfold serial dilutions were performed using an Echo550 liquid handler (Labcyte, San Jose, CA). The experiments were performed in technical duplicates and three biological replicates. Cells were incubated with compounds for 72 h and thereafter 5 μL of MTS reagent was added to each well.

[2] = tested on: CEM-DNR (daunorubicin resistant variant of CCRF-CEM); experiment: MTS cytotoxicity assay, CEM-DNR; type: cell-based, human; conditions: for IC50: Homo sapiens, CEM-DNR, 72 h, read-out: IC50 cytotoxic activity CEM-DNR
Description: as §1

[3] = tested on: K562 (chronic myelogenous leukaemia); experiment: MTS cytotoxicity assay, K562; type: cell-based; conditions: Homo sapiens, K562, 72 h, read-out: IC50 cytotoxic activity K562
Description: as §1

[4] = tested on: K562-TAX (paclitaxel-resistant variant of K562); experiment: MTS cytotoxicity assay, K562-TAX; type: cell-based, human; conditions: for IC50: Homo sapiens, K562-Tax, 72 h, read-out: IC50 cytotoxic activity K562-TAX
Description: as §1

[5] = tested on: A549 (lung adenocarcinoma); experiment: MTS cytotoxicity assay, A549; type: cell-based, human; conditions: Homo sapiens, A549, 72 h, read-out: IC50 cytotoxic activity A549
Description: as §1

[6] = tested on: HCT116 (colorectal adenocarcinoma); experiment: MTS cytotoxicity assay, HCT116; type: cell-based; conditions: Homo sapiens, HCT-116, 72 h, read-out: IC50 cytotoxic activity HCT116
Description: as §1

[7] = tested on: HCT116p53−/− (p53 gene null variant of HCT116); experiment: MTS cytotoxicity assay, HCT116p53−/−; type: cell-based; conditions: Homo sapiens, HCT-116, 72 h, read-out: IC50 cytotoxic activity HCT116p53-
Description: as §1

[8] = tested on: U2OS (osteosarcoma); experiment: MTS cytotoxicity assay, U2OS; type: cell-based, human; conditions: Homo sapiens, U2OS, 72 h, read-out: IC50 cytotoxic activity U2OS
Description: as §1

[9] = MTS cytotoxicity assay, MRC-5; type: cell-based; conditions: human
Description: as §1

[10] = MTS cytotoxicity assay, BJ; type: cell-based; conditions: human
Description: as §1

[11] = MTS cytotoxicity assay, HUVEC; type: cell-based; conditions: human
Description: as §1

[12] = molecular target: T1, porcine brain tubulin (Sus scrofa, UniProt P02550+P02554); experiment: Tubulin polymerisation assay; type: biochemical; conditions: 10 μmol/L, Vmax relative to DMSO
T1 construct: purchased Cytoskeleton, Denver, CO; host or cells: porcine brain (tissue-purified)
Description: Tubulin polymerisation assay kit (Cytoskeleton, Denver, CO) was used according to the manufacturer’s instructions. Polymerisation of porcine brain tubulin (>99% purity) was measured using an EnVision Multilabel Plate Reader (PerkinElmer, Waltham, MA) at 37 °C, in the presence of either 10 μmol/L test compounds or DMSO. Maximum polymerisation velocity (Vmax) was calculated from the polymerisation curves. Data visualisation was performed in OriginPro 2018b (b9.5.5.409) software (OriginLab Corporation, Northampton, MA)[10].

[13] = tested on: CCRF-CEM lymphoblasts; experiment: Cell cycle analysis by flow cytometry (propidium iodide); type: cell-based, human
Description: (§2) To further characterise the mode of action of studied compounds, we analysed the cell cycle profile of CCRF-CEM cells treated with compounds for 24 h. […] The compounds ED1–ED9 and ED12 induced arrest in G2/M phase of the cell cycle (Figure 2(A)). To differentiate between G2 block and mitotic arrest, we used phospho-histone H3 (Ser10) mitotic marker (Figure 2(B)). […] Generally, dimers induced a dose-dependent increase of sub G1 cell population with fragmented DNA except for ED2 and ED4 (Figure 2(C)). […] To assess the proliferation of treated cells, they were subjected to 5-bromo-2-deoxyuridine (BrDU) labelling. […] Analogously, changes in 5-bromouridine (BrU) incorporation were examined to monitor overall RNA synthesis.
(§3) Treated CCRF-CEM cells were harvested, washed with ice-cold phosphate-buffered saline (PBS), fixed in cold 70% ethanol and stored at −20 °C. Prior to analysis, fixed cells were permeabilised with 0.25% Triton X-100 in PBS for 15 min, blocked in 1% bovine serum, and incubated with anti-phospho-Histone H3 (Ser^10) antibody (Merck Millipore, Burlington, MA). Subsequently, the cells were treated with 50 μg/mL RNAse, stained with propidium iodide and analysed by FACSCalibur (Becton Dickinson, Franklin Lakes, NJ) flow cytometer at 488 nm. Cell cycle distribution (G1, S, and G2/M) was analysed using ModFitLT software (Verity, Topsham, ME), and reflects only viable population prior to the fixing procedure. Particles with lower propidium iodide content than G1 phase cells were classified as non-viable cells with fragmented DNA. Flow cytometry data visualisation was performed using OriginPro 2018b (b9.5.5.409) software (OriginLab Corporation, Northampton, MA)[10].

[14] = tested on: CCRF-CEM lymphoblasts; experiment: Phospho-histone H3 (Ser10) mitotic marker, flow cytometry; type: cell-based, human
Description: as §2, §3

[15] = tested on: CCRF-CEM lymphoblasts; experiment: BrDU incorporation analysis (DNA synthesis); type: cell-based, human
Description: as §2
Thirty minutes before harvesting, cells were pulse-labelled with 10 μM BrDU. After overnight fixation in ice-cold 70% ethanol, cells were resuspended in 2 M HCl for 30 min at room temperature (RT), then washed with 0.1 M Na2B4O7 and blocked with PBS containing 0.5% Tween-20 and 1% BSA. BrDU incorporation was analysed using anti-BrdU antibody clone MoBu-1 (Exbio, Vestec, Czech Republic) and a secondary anti-mouse-FITC antibody (Sigma-Aldrich, St. Louis, MO). Cells were washed with PBS and stained with 0.1 mg/mL propidium iodide and 0.5 mg/mL RNase A for 1 h at RT and analysed by flow cytometry using a 488 nm single beam laser (FACSCalibur, Becton Dickinson, Franklin Lakes, NJ). The percentage of cells with incorporated BrDU was analysed using CellQuest software.

[16] = tested on: CCRF-CEM lymphoblasts; experiment: BrU incorporation analysis (RNA synthesis); type: cell-based, human
Description: as §2
Prior to the trypsinisation, cells were treated with 1 mM BrU for 30 min. Subsequently, the cells were fixed in 1% paraformaldehyde with 0.05% of NP-40 for 15 min at RT and stored overnight at 4 °C. Fixed cells were washed with 1% glycine in PBS and stained with primary anti-BrdU antibody clone MoBu-1 crossreacting with BrU (Exbio, Vestec, Czech Republic) for 30 min at RT, washed with PBS and labelled with secondary anti-mouse-FITC antibody (Sigma-Aldrich, St. Louis, MO). Following 1-h incubation in 1% paraformaldehyde containing 0.05% NP-40, cells were stained with propidium iodide (0.1 mg/mL) and treated with RNase A (0.5 mg/mL) for 1 h at RT. The percentage of BrU positive cells was quantified using CellQuest software.

T1 sequence (P02550 whole entry): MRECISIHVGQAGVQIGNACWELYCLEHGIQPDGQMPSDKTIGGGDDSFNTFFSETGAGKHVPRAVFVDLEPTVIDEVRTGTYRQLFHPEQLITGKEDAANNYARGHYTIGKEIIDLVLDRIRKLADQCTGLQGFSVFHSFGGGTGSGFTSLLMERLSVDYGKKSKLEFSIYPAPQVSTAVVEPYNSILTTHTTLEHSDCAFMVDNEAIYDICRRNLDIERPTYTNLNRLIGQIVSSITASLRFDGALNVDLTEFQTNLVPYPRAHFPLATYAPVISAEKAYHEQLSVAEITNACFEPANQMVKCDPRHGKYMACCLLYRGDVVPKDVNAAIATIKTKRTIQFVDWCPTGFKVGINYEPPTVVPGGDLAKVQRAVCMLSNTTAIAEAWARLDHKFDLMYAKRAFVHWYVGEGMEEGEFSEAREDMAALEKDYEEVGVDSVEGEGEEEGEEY
T1 sequence (P02554 whole entry): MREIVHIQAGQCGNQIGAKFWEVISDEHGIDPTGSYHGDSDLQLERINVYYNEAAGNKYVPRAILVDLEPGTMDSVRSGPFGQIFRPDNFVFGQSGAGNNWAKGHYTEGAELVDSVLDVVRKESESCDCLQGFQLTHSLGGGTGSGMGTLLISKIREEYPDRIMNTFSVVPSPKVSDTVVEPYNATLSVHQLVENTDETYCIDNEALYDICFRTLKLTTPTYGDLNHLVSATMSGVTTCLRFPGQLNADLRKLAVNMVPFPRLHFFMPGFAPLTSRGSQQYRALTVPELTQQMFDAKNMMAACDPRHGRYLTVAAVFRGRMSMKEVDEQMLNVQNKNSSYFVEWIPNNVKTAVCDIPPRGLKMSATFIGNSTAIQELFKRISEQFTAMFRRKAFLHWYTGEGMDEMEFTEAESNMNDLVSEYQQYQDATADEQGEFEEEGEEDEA

COc1c(Cn2cc([C@]3(O)CC[C@H]4[C@@H]5CCc6cc(O)ccc6[C@H]5CC[C@@]43C)nn2)cc(C)cc1Cn1cc([C@]2(O)CC[C@H]3[C@@H]4CCc5cc(O)ccc5[C@H]4CC[C@@]32C)nn1 [ED8, (17β,17′β)-17,17′-[(2-Methoxy-5-methylbenzene-1,3-diyl)bis(methanediyl-1H-1,2,3-triazole-1,4-diyl)]bisestra-1,3,5(10)-triene-3,17-diol]
IC50 [1]: 1380 ± 180 nM
IC50 cytotoxic activity CEM-DNR [2]: maintained its activity
IC50 [2]: 3440 ± 690 nM
IC50 [3]: 690 ± 150 nM
IC50 cytotoxic activity K562-TAX [4]: sensitive
IC50 [4]: 13100 ± 3690 nM
IC50 [5]: > 50000 nM
IC50 [6]: 1770 ± 160 nM
IC50 [7]: 2010 ± 120 nM
IC50 [8]: 6930 ± 1160 nM
IC50 at 72 h [9]: > 50000 nM
IC50 at 72 h [10]: > 50000 nM
IC50 at 72 h [11]: 79 ± 48 nM
inhibitory activity against tubulin polymerisation (in words) [12]: comparable or better inhibitory activity
<G1 (sub-G1, fragmented DNA), % of positive cells ([13]; 1×IC50, 24 h): 16.29%
>G2/M (polyploidy), % of positive cells ([13]; 1×IC50, 24 h): 7.25%
G0/G1, % of positive cells ([13]; 1×IC50, 24 h): 34.59%
G2/M, % of positive cells ([13]; 1×IC50, 24 h): 31.94%
S, % of positive cells ([13]; 1×IC50, 24 h): 33.47%
<G1 (sub-G1, fragmented DNA), % of positive cells ([13]; 5×IC50, 24 h): 24.86%
>G2/M (polyploidy), % of positive cells ([13]; 5×IC50, 24 h): 10.51%
G0/G1, % of positive cells ([13]; 5×IC50, 24 h): 4.71%
G2/M, % of positive cells ([13]; 5×IC50, 24 h): 78.93%
S, % of positive cells ([13]; 5×IC50, 24 h): 16.36%
pH3Ser10, % of positive cells ([14]; 1×IC50, 24 h): 11.01%
pH3Ser10, % of positive cells ([14]; 5×IC50, 24 h): 0.63%
BrDU, % of positive cells ([15]; 1×IC50, 24 h): 45.06%
BrDU, % of positive cells ([15]; 5×IC50, 24 h): 5.15%
BrU, % of positive cells ([16]; 1×IC50, 24 h): 59.19%
BrU, % of positive cells ([16]; 5×IC50, 24 h): 3.11%

Cc1cc(C)c(Cn2cc([C@]3(O)CC[C@H]4[C@@H]5CCc6cc(O)ccc6[C@H]5CC[C@@]43C)nn2)cc1Cn1cc([C@]2(O)CC[C@H]3[C@@H]4CCc5cc(O)ccc5[C@H]4CC[C@@]32C)nn1 [ED9, 17,17′-[(4,6-Dimethyl-1,3-phenylene)bis(methylene-1H-1,2,3-triazole-1,4-diyl)]di[estra-1,3,5(10)-triene-3,17β-diol]]
IC50 [1]: 1690 ± 57 nM
IC50 [2]: > 50000 nM
IC50 [3]: 1270 ± 120 nM
IC50 [4]: > 50000 nM
IC50 [5]: > 50000 nM
IC50 [6]: 2020 ± 300 nM
IC50 [7]: 1960 ± 260 nM
IC50 [8]: 5260 ± 1690 nM
IC50 at 72 h [9]: 3200 ± 890 nM
IC50 at 72 h [10]: > 50000 nM
IC50 at 72 h [11]: 38 ± 11 nM
inhibitory activity against tubulin polymerisation (in words) [12]: comparable or better inhibitory activity
<G1 (sub-G1, fragmented DNA), % of positive cells ([13]; 1×IC50, 24 h): 3.92%
>G2/M (polyploidy), % of positive cells ([13]; 1×IC50, 24 h): 13.86%
G0/G1, % of positive cells ([13]; 1×IC50, 24 h): 38.18%
G2/M, % of positive cells ([13]; 1×IC50, 24 h): 23.92%
S, % of positive cells ([13]; 1×IC50, 24 h): 37.90%
<G1 (sub-G1, fragmented DNA), % of positive cells ([13]; 5×IC50, 24 h): 11.48%
>G2/M (polyploidy), % of positive cells ([13]; 5×IC50, 24 h): 17.77%
G0/G1, % of positive cells ([13]; 5×IC50, 24 h): 4.31%
G2/M, % of positive cells ([13]; 5×IC50, 24 h): 68.38%
S, % of positive cells ([13]; 5×IC50, 24 h): 27.32%
pH3Ser10, % of positive cells ([14]; 1×IC50, 24 h): 8.42%
pH3Ser10, % of positive cells ([14]; 5×IC50, 24 h): 41.35%
BrDU, % of positive cells ([15]; 1×IC50, 24 h): 46.72%
BrDU, % of positive cells ([15]; 5×IC50, 24 h): 8.89%
BrU, % of positive cells ([16]; 1×IC50, 24 h): 23.92%
BrU, % of positive cells ([16]; 5×IC50, 24 h): 38.94%
